Experimental data: publication PMC7243443 (Journal of natural products, 2020)

How the values were obtained:
[1] = system: glucose uptake in H1299 human lung cancer cells; assay: Glucose uptake assay; format: cell-based; details: 30 μM, 15 min
[2] = system: Na^+/K^+-ATPase (adenosine 5′-triphosphatase from porcine cerebral cortex); assay: Na+/K+-ATPase activity assay; format: biochemical; details: 7: at concentrations less than 100 μM
[3] = system: small panel of human cancer cell lines; details: read-out: IC50, cytotoxicity against a small panel of human cancer cell lines; cited from earlier work
[4] = system: ipsilateral kidney; details: 12–27 kg female dogs, renal-artery infusion, 0.05–0.08 mg/kg; cited from earlier work

**Q.** Which “inhibition of glucose uptake / glucose transport (in words)” value [1] does the source give for `C[C@H]1O[C@@H](O[C@H]2[C@@H](O)C[C@H](O[C@H]3[C@@H](O)C[C@H](O[C@H]4CC[C@@]5(C)[C@H](CC[C@@H]6[C@@H]5C[C@@H](O)[C@]5(C)[C@@H](C7=CC(=O)OC7)CC[C@]65O)C4)O[C@@H]3C)O[C@@H]2C)C[C@H](O)[C@@H]1O` [compound 1, (+)-Digoxin] here?
**A.** did not inhibit glucose uptake

**Q.** What about the “inhibition of glucose uptake / glucose transport (in words)” value ([1]; listed as (+)-digoxin) of the same compound?
**A.** did not inhibit glucose transport

**Q.** And the “inhibition of Na+/K+-ATPase activity (in words)” value [2]?
**A.** inhibited Na^+/K^+-ATPase activity in a concentration-dependent manner

**Q.** And the IC50 [3]?
**A.** 40 to 200 nM

**Q.** What about the “excretion of Ca2+, Mg2+, and PO4 3- by the ipsilateral kidney (in words)” value [4] of the same compound?
**A.** enhanced

**Q.** What about the “maximal transport of glucose (in words)” value [4] of the same compound?
**A.** no change in the maximal transport of glucose
